Laboratory results from ChEMBL document CHEMBL5506059, “Cyanomethylquinolones as a New Class of Potential Multitargeting Broad-Spectrum Antibacterial Agents” (J Med Chem, 2024).
≈ marks a conversion by molar mass, not a printed value. Calls of active or inactive are those of the source. No cut-off for these calls is given here.

Legend:
Staphylococcus aureus [1] = assay: Potency index, ratio of norfloxacin MIC to test compound MIC for antibacterial activity against Staphylococcus aureus clinical isolate assessed as inhibition of bacterial growth incubated for 24 hrs; assay type: functional
Pseudomonas aeruginosa [2] = assay: Antibiofilm activity in Pseudomonas aeruginosa assessed as biofilm eradication measured after 24 hrs by crystal violet staining based analysis; assay type: functional, organism-based; settings: dose 1-2 µg/ml
Staphylococcus aureus [3] = assay: Induction of morphological changes in methicillin resistant Staphylococcus aureus assessed as appearance of blurred intracellular boundaries with disintegration of bacterial structure at 2 ug/ml incubated for 3 hrs by SEM analysis; assay type: functional, organism-based; settings: dose 2.0 µg/ml
Enterococcus faecalis [4] = assay: Antibacterial activity against vancomycin-resistant Enterococcus faecalis clinical isolate p1-2007225053 assessed as inhibition of bacterial growth incubated for 24 hrs; assay type: functional
Cell membrane [5] = assay: Induction of cell membrane damage in methicillin-resistant Staphylococcus aureus assessed as increase in nucleic acid leakage at 0 to 2 ug/ml incubated for 12 hrs by optical density based microplate reader analysis; assay type: cell membranes; settings: dose 0-2 µg/ml
Pseudomonas aeruginosa [6] = assay: Induction of intracellular ROS generation in Pseudomonas aeruginosa assessed as increase in fluorescence intensity at 2 ug/ml incubated for 6 hrs in presence of N-acetyl-L-cysteine by DCFH-DA dye based fluorescence analysis; assay type: functional, organism-based; settings: dose 2.0 µg/ml
Staphylococcus aureus [7] = assay: Antibacterial activity against Staphylococcus aureus CMCC(B)26001 assessed as inhibition of bacterial growth incubated for 24 hrs; assay type: functional
Cell membrane [8] = assay: Induction of cell membrane depolarization in methicillin-resistant Staphylococcus aureus assessed as increase in fluorescence intensity at 1 ug/ml measured for 30 mins by DiSC35 dye based fluorescence analysis; assay type: cell membranes; settings: dose 1.0 µg/ml
Staphylococcus aureus [9] = assay: Antibacterial activity against methicillin resistant Staphylococcus aureus assessed as reduction in metabolic activity by measuring reduction in fluorescence intensity at 0.5 to 2 times MIC incubated for 6 hrs by alamar blue assay; assay type: functional, organism-based
Pseudomonas aeruginosa [10] = assay: Induction of morphological changes in Pseudomonas aeruginosa assessed as appearance of blurred intracellular boundaries with disintegration of bacterial structure at 2 ug/ml incubated for 3 hrs by SEM analysis; assay type: functional, organism-based; settings: dose 2.0 µg/ml
Pseudomonas aeruginosa [11] = assay: Antibacterial activity against Pseudomonas aeruginosa ATCC 27853 assessed as inhibition of bacterial growth incubated for 24 hrs; assay type: functional
Cell membrane [12] = assay: Induction of cell membrane permeability in Pseudomonas aeruginosa assessed as increase in fluorescence intensity at 1 to 2 ug/ml incubated for 6 hrs by PI staining based fluorescence analysis; assay type: cell membranes; settings: dose 1-2 µg/ml
Pseudomonas aeruginosa [13] = assay: Potency index, ratio of norfloxacin MIC to test compound MIC for antibacterial activity against Pseudomonas aeruginosa clinical isolate assessed as inhibition of bacterial growth incubated for 24 hrs; assay type: functional
Klebsiella pneumoniae = assay: Antibacterial activity against Klebsiella pneumoniae clinical isolate assessed as inhibition of bacterial growth incubated for 24 hrs; assay type: functional
Pseudomonas aeruginosa [14] = assay: Potency index, ratio of clinafloxacin MIC to test compound MIC for antibacterial activity against Pseudomonas aeruginosa clinical isolate assessed as inhibition of bacterial growth incubated for 24 hrs; assay type: functional
Pseudomonas aeruginosa [15] = assay: Induction of intracellular ROS generation in Pseudomonas aeruginosa assessed as increase in fluorescence intensity at 2 ug/ml incubated for 6 hrs by DCFH-DA dye based fluorescence analysis; assay type: functional, organism-based; settings: dose 2.0 µg/ml
Staphylococcus aureus [16] = assay: Antibacterial activity against Staphylococcus aureus ATCC 29213 assessed as inhibition of bacterial growth incubated for 24 hrs; assay type: functional
Staphylococcus aureus [17] = assay: Antibacterial activity against methicillin resistant Staphylococcus aureus infected in female ICR mouse assessed as log reduction in bacterial load at 20 mg/kg pre-infected with bacteria for 24 hrs followed by compound administration on wound site every 6 hrs for 2 times and measured 36 hrs post infection; assay type: functional; settings: time 12 hrs
Pseudomonas aeruginosa [18] = assay: Induction of morphological changes in Pseudomonas aeruginosa assessed as appearance of wrinkled bacterial surface at 2 ug/ml incubated for 3 hrs by SEM analysis; assay type: functional, organism-based; settings: dose 2.0 µg/ml
Acinetobacter baumannii = assay: Antibacterial activity against Acinetobacter baumannii clinical isolate assessed as inhibition of bacterial growth incubated for 24 hrs; assay type: functional
Staphylococcus aureus [19] = assay: Resistance development in methicillin resistant Staphylococcus aureus assessed as increase in MIC measured after 20 days; assay type: functional, organism-based; settings: time 20.0 day
Staphylococcus aureus [20] = assay: Antibiofilm activity in methicillin resistant Staphylococcus aureus assessed as biofilm eradication measured after 24 hrs by crystal violet staining based analysis; assay type: functional, organism-based; settings: dose 1-2 µg/ml
Enterococcus faecalis [21] = assay: Potency index, ratio of ciprofloxacin MIC to test compound MIC for antibacterial activity against vancomycin-resistant Enterococcus faecalis clinical isolate p1-2007225053 assessed as inhibition of bacterial growth incubated for 24 hrs; assay type: functional
[22] = Cytotoxicity against HUVEC cells assessed as cell viability at 25 ug/ml measured after 24 hrs by MTT assay relative to control; assay type: toxicity, cell-based; settings: human, at 25 µg/mL, read-out: Activity
Staphylococcus aureus [23] = assay: Antibacterial activity against ciprofloxacin-treated Staphylococcus aureus ATCC 6538 assessed as inhibition of bacterial growth measured after 24 hrs; assay type: functional
Staphylococcus aureus [24] = assay: Antibacterial activity against Staphylococcus aureus clinical isolate assessed as inhibition of bacterial growth incubated for 24 hrs; assay type: functional
Pseudomonas aeruginosa [25] = assay: Potency index, ratio of ciprofloxacin MIC to test compound MIC for antibacterial activity against Pseudomonas aeruginosa clinical isolate assessed as inhibition of bacterial growth incubated for 24 hrs; assay type: functional
Streptococcus pyogenes [26] = assay: Potency index, ratio of norfloxacin MIC to test compound MIC for antibacterial activity against Streptococcus pyogenes ATCC 19615 assessed as inhibition of bacterial growth incubated for 24 hrs; assay type: functional
L02 = assay: Cytotoxicity against human L02 cells assessed as reduction in cell viability at 0.78 to 25 ug/ml measured after 24 hrs by MTT assay; assay type: toxicity, cell-based; settings: l02, 24 h, dose 0.78-25 µg/ml
Pseudomonas aeruginosa [27] = assay: Resistance development in Pseudomonas aeruginosa assessed as increase in MIC measured after 20 days; assay type: functional, organism-based; settings: time 20.0 day
Staphylococcus aureus [28] = assay: Induction of morphological changes in methicillin resistant Staphylococcus aureus assessed as appearance of wrinkled bacterial surface at 2 ug/ml incubated for 3 hrs by SEM analysis; assay type: functional, organism-based; settings: dose 2.0 µg/ml
Staphylococcus aureus [29] = assay: Induction of morphological changes in methicillin resistant Staphylococcus aureus assessed as appearance of concaved bacterial surface at 2 ug/ml incubated for 3 hrs by SEM analysis; assay type: functional, organism-based; settings: dose 2.0 µg/ml
Enterococcus faecalis [30] = assay: Antibacterial activity against Enterococcus faecalis clinical isolate assessed as inhibition of bacterial growth incubated for 24 hrs; assay type: functional
Staphylococcus aureus [31] = assay: Potency index, ratio of clinafloxacin MIC to test compound MIC for antibacterial activity against Staphylococcus aureus clinical isolate assessed as inhibition of bacterial growth incubated for 24 hrs; assay type: functional
Streptococcus pyogenes [32] = assay: Antibacterial activity against Streptococcus pyogenes ATCC 19615 assessed as inhibition of bacterial growth incubated for 24 hrs; assay type: functional
Pseudomonas aeruginosa [33] = assay: Induction of morphological changes in Pseudomonas aeruginosa assessed as appearance of concaved bacterial surface at 2 ug/ml incubated for 3 hrs by SEM analysis; assay type: functional, organism-based; settings: dose 2.0 µg/ml
Enterococcus faecalis [34] = assay: Potency index, ratio of norfloxacin MIC to test compound MIC for antibacterial activity against vancomycin-resistant Enterococcus faecalis clinical isolate p1-2007225053 assessed as inhibition of bacterial growth incubated for 24 hrs; assay type: functional
Cell membrane [35] = assay: Induction of cell membrane damage in Pseudomonas aeruginosa assessed as increase in nucleic acid leakage at 0 to 2 ug/ml incubated for 12 hrs by optical density based microplate reader analysis; assay type: cell membranes; settings: dose 0-2 µg/ml
Staphylococcus aureus [36] = assay: Antibacterial activity against Staphylococcus aureus ATCC 6538 assessed as inhibition of bacterial growth incubated for 24 hrs; assay type: functional

For `N#CCc1cc2c(cc1F)c(=O)c(C(=O)O)cn2C1CC1`, the Ratio (Staphylococcus aureus [1]) was 32, the Activity (Pseudomonas aeruginosa [2]) was “Dose-Dependent Effect” and the Activity (Staphylococcus aureus [3]) was “Active”. The MIC (Enterococcus faecalis [4]) was 0.125 µg/mL (≈ 0.437 µM), the Activity (Cell membrane [5]) was “Active” and the Activity (Pseudomonas aeruginosa [6]) was “inactive”. The MIC (Staphylococcus aureus [7]) was 0.125 µg/mL (≈ 0.437 µM), the Activity (Cell membrane [8]) was “Active” and the Activity (Staphylococcus aureus [9]) was “Active”. For the same compound, the Activity (Pseudomonas aeruginosa [10]) was “Active”, the MIC (Pseudomonas aeruginosa [11]) was 0.5 µg/mL (≈ 1.75 µM) and the Activity (Cell membrane [12]) was “Active”. It also gave a Ratio (Pseudomonas aeruginosa [13]) of 32, an MIC (Klebsiella pneumoniae) of 1 µg/mL (≈ 3.49 µM) and a Ratio (Pseudomonas aeruginosa [14]) of 2. For the same compound, the Activity (Pseudomonas aeruginosa [15]) was “Active”, the MIC (Staphylococcus aureus [16]) was 1 µg/mL (≈ 3.49 µM) and the “log(activity)” value (Staphylococcus aureus [17]) was roughly 4. For the same compound, the Activity (Pseudomonas aeruginosa [18]) was “Active”, the MIC (Acinetobacter baumannii) was 0.25 µg/mL (≈ 0.873 µM) and the Activity (Staphylococcus aureus [19]) was “inactive”. The Activity (Staphylococcus aureus [20]) was “Dose-Dependent Effect”, the Ratio (Enterococcus faecalis [21]) was 2 and the viability at 24 h, 25 ug/ml [22] was greater than 90%. For the same compound, the MIC (Staphylococcus aureus [23]) was 8 µg/mL (≈ 27.9 µM), the MIC (Staphylococcus aureus [24]) was 0.25 µg/mL (≈ 0.873 µM) and the Ratio (Pseudomonas aeruginosa [25]) was 8. The Ratio (Streptococcus pyogenes [26]) was 128, the Activity (L02) was “Non-Toxic” and the Activity (Pseudomonas aeruginosa [27]) was “inactive”. For the same compound, the Activity (Staphylococcus aureus [28]) was “Active”, the Activity (Staphylococcus aureus [29]) was “Active” and the MIC (Enterococcus faecalis [30]) was 4 µg/mL (≈ 14 µM). The Ratio (Staphylococcus aureus [31]) was 2, the MIC (Streptococcus pyogenes [32]) was 0.25 µg/mL (≈ 0.873 µM) and the Activity (Pseudomonas aeruginosa [33]) was “Active”. The Ratio (Enterococcus faecalis [34]) was 8, the Activity (Cell membrane [35]) was “Active” and the MIC (Staphylococcus aureus [36]) was 0.5 µg/mL (≈ 1.75 µM).
